Data on 1 molecule can be found in patent US9883998B2, “Methods for lightening skin using arbutin compositions” (OMP, Inc., priority 2007, dated 2018).

The subject of one test is skin. Nature of the test: Skin lightening in volunteers by Minolta Chromameter b* parameter. In kind it is in vivo, human. To be noted: for dose dependence of skin lightening efficacy: 4% versus 7% arbutin in Examples 1 and 2 base formulas. The source says: Ten volunteers between the ages of 18 and 60 years of age enrolled in the study. Volunteers included in the study were of Asian or Caucasian descent with a Fitzpatrick phototype III or above. Enrolled subjects were free of any systemic or dermatologic disorder, including a known history of allergies or other medical conditions which, in the opinion of the Medical Investigator, could interfere with the conduct of the study, interpretation of results, or increase the risk of adverse reactions. Moreover, volunteers had no clinically significant abnormal findings, based on their medical history, which may have affected study participation as determined by the investigator. Impaneled female volunteers were not pregnant (as assessed with a urine pregnancy test at the start of the study and every 4 weeks thereafter) and agreed to use suitable contraceptive methods throughout the duration of the study. All volunteers were willing to refrain from using any medications, moisturizers, sunscreens, fragrances or new personal care products/laundry detergents on the back for the duration of the study and were also willing to avoid sun exposure, on the back (ie, sunbathing), as best as possible and refrain from using tanning booths for the study duration. Furthermore, subjects agreed to avoid swimming for the entire study.
All volunteers reported to the clinical site every day, excluding weekends, for application of study products in an open label, un-blinded fashion. Study products and dosing were as follows:
All subjects had 2 cm^2 squares demarcated on their backs, with a plastic template adhered to the skin, for identification of treatment sites. […]
The safety of the formulations of Example 1 and Example 2 was assessed via Repeated Insult Patch Testing on 49 volunteers, in a separate study. All products used in the study presented herein were evaluated for safety through investigator scoring of the application sites at baseline, 4- and 8-weeks. […] Skin lightening was assessed via use of the Minolta CR-300 Chromameter® at baseline, 4- and 8-weeks. […]

The target in the next test is tyrosinase (Homo sapiens, UniProt P14679). As to conditions: human melanocyte cultures; cited from earlier work.
Sequence of tyrosinase (P14679 19-529): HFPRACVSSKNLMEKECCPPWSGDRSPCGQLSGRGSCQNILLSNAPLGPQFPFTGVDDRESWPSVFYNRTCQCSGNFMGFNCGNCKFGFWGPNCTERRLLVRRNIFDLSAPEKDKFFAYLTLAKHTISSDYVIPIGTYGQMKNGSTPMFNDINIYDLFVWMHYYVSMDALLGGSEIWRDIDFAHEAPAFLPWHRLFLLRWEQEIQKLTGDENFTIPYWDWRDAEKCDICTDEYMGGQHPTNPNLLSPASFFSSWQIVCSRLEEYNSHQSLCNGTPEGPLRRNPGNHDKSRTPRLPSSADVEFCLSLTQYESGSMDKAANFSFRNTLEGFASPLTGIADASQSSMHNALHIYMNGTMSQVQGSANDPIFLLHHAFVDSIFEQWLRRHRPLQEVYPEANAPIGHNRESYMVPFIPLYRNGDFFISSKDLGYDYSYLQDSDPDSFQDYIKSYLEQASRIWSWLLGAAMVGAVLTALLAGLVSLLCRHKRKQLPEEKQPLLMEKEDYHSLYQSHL

Consider `OC[C@H]1O[C@@H](Oc2ccc(O)cc2)[C@H](O)[C@@H](O)[C@@H]1O` [Arbutin, hydroxy phenyl-b-D-glucopyranoside], for which the “dose dependence of skin lightening efficacy” value was “dose dependent” with skin and “dose dependant” in the test with skin (listed as arbutin). For the same molecule, the “skin lightening efficacy of 7% arbutin versus 4% hydroquinone” value in the test with skin (7% arbutin, relatively non-photoexposed skin, formulas similar to bleaching and correcting cream and Blender bases) is “equally as efficacious as 4% hydroquinone”. The “tyrosinase inhibiting potency relative to hydroquinone” value on tyrosinase is “one-hundredth that of hydroquinone”.
